Drawing on BindingDB's records for doi:10.1021/jm1005989 (Pfizer, 2010), this text covers EC50 for one molecule.

This test addresses Beta-2 adrenergic receptor (Homo sapiens, UniProt P07550). Description: Agonist activity at human recombinant beta2 adrenergic receptor expressed in CHO cells assessed as elevation in cAMP level after 1 hr by flashplate method.

Sequence of Beta-2 adrenergic receptor (P07550 whole entry): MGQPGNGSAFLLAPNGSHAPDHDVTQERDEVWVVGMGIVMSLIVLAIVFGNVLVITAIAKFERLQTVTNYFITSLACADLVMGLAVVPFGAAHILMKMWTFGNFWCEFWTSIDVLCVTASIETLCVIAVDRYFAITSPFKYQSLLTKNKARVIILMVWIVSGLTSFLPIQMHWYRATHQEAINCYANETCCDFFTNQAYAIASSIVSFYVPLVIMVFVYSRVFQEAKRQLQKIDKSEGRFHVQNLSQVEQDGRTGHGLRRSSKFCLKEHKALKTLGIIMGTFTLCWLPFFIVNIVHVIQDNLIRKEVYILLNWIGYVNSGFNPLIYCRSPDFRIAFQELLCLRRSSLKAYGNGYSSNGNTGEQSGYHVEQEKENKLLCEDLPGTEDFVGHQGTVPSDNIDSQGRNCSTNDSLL

As usually defined, the EC50 is the concentration needed to bring the measured effect to its halfway point. With `CC(C)(Cc1cccc(CC(=O)NCc2ccc(Cl)c(Cl)c2)c1)NC[C@H](O)c1ccc(O)c(NS(C)(=O)=O)c1` [(R)-N-(3,4-dichlorobenzyl)-2-(3-(2-(2-hydroxy-2-(4-hydroxy-3-(methylsulfonamido)phenyl)ethylamino)-2-methylpropyl)phenyl)acetamide], the concentration giving a half-maximal response (EC50) is 0.07 nM.
